In patent publication US20250074920A1, “MACROCYCLIC COMPOUNDS AND USE AS KINASE INHIBITORS” (BLOSSOMHILL THERAPEUTICS, INC., priority 2022, published 2025):

Columns and labels:
Test in all cases: KINOMEscan kinase binding assay
IGF1R = conditions: at 1 μM
Method: (§1) Kinase binding assays were performed at Eurofins/DiscoveRx using the general KINOMEscan Protocol (Fabian, M. A. et al., “A small molecule-kinase interaction map for clinical kinase inhibitors,” Nat. Biotechnol. 2005, 23(3):329-36). For most assays, kinase-tagged T7 phage strains were prepared in an E. coli host derived from the BL21 strain. E. coli were grown to log-phase and infected with T7 phage and incubated with shaking at 32° C. until lysis. The lysates were centrifuged and filtered to remove cell debris. The remaining kinases were produced in HEK-293 cells and subsequently tagged with DNA for qPCR detection. Streptavidin-coated magnetic beads were treated with biotinylated small molecule ligands for 30 minutes at room temperature to generate affinity resins for kinase assays. The liganded beads were blocked with excess biotin and washed with blocking buffer (SeaBlock (Pierce), 1% BSA, 0.05% Tween 20, 1 mM DTT) to remove unbound ligand and to reduce nonspecific binding. Binding reactions were assembled by combining kinases, liganded affinity beads, and test compounds in 1× binding buffer (20% SeaBlock, 0.17×PBS, 0.05% Tween 20, 6 mM DTT). All reactions were performed in polystyrene 96-well plates in a final volume of 0.135 mL. The assay plates were incubated at room temperature with shaking for 1 hour and the affinity beads were washed with wash buffer (1×PBS, 0.05% Tween 20). The beads were then re-suspended in elution buffer (1×PBS, 0.05% Tween 20, 0.5 μM non-biotinylated affinity ligand) and incubated at room temperature with shaking for 30 minutes. The kinase concentration in the eluates was measured by qPCR. Results for compounds tested in this assay at a given concentration are reported as “% Ctrl”, where lower numbers indicate stronger binding in the matrix. % Ctrl was calculated as (test compound signal-positive control signal)/(negative control signal-positive control signal)×100. Dissociation constants (Kds) for test compound-kinase interactions were calculated by measuring the amount of kinase captured on the solid support as a function of the test compound concentration.

BRK = conditions: at 1 μM
Method: as §1

CSF1R = conditions: at 1 μM
Method: as §1

FES = conditions: at 1 μM
Method: as §1

[1] = system: ABL1(F317I)-nonphosphorylated; conditions: at 1 μM
Method: as §1

TIE1 = conditions: at 1 μM
Method: as §1

FGFR3 = conditions: at 1 μM
Method: as §1

FGFR3(G697C) = conditions: at 1 μM
Method: as §1

EGFR = conditions: at 1 μM
Method: as §1

TIE2 = conditions: at 1 μM
Method: as §1

MET = conditions: at 1 μM
Method: as §1

KIT(D816V) = conditions: at 1 μM
Method: as §1

INSRR = conditions: at 1 μM
Method: as §1

[2] = system: TYK2(JH2domain-pseudokinase)
Method: as §1

[3] = system: TYK2(JH1domain-catalytic)
Method: as §1

EGFR(G719C) = conditions: at 1 μM
Method: as §1

BMX = conditions: at 1 μM
Method: as §1

CSK = conditions: at 1 μM
Method: as §1

KIT(D816H) = conditions: at 1 μM
Method: as §1

HCK = conditions: at 1 μM
Method: as §1

KIT(A829P) = conditions: at 1 μM
Method: as §1

EGFR(S752-1759del) = conditions: at 1 μM
Method: as §1

TNK1 = conditions: at 1 μM
Method: as §1

[4] = system: EGFR(L747-S752del, P753S); conditions: at 1 μM
Method: as §1

TNK2 = conditions: at 1 μM
Method: as §1

ABL2 = conditions: at 1 μM
Method: as §1

PYK2 = conditions: at 1 μM
Method: as §1

KIT = conditions: at 1 μM
Method: as §1

[5] = system: ABL1(M351T)-phosphorylated; conditions: at 1 μM
Method: as §1

[6] = system: JAK3(JH1domain-catalytic)
Method: as §1

[7] = system: JAK2(JH1domain-catalytic)
Method: as §1

RET(M918T) = conditions: at 1 μM
Method: as §1

ALK(L1196M) = conditions: at 1 μM
Method: as §1

ERBB4 = conditions: at 1 μM
Method: as §1

[8] = system: ABL1(T315I)-nonphosphorylated; conditions: at 1 μM
Method: as §1

[9] = system: ABL1(Y253F)-phosphorylated; conditions: at 1 μM
Method: as §1

FER = conditions: at 1 μM
Method: as §1

[10] = system: ABL1(E255K)-phosphorylated; conditions: at 1 μM
Method: as §1

## Cc1cc2c([nH]1)/C=C1\C(=O)Nc3c(Cl)cc(cc31)-c1cn(C)nc1COC[C@@H](C)NC2=O [Cpd. 3, [3a(4)Z,10R]-20-chloro-6,10,15-trimethyl-10,11,13,15-tetrahydro-2H-1,17-(ethanediylidene)pyrazolo[4,3-m]dipyrrolo[3,2-f:3′,4′-i][1,4]oxazacyclopentadecine-3,8(5H,9H)-dione]
IGF1R
  % Ctrl: 95%
BRK
  % Ctrl: 95%
CSF1R
  % Ctrl: 100%
FES
  % Ctrl: 99%
[1]
  % Ctrl: 100%
TIE1
  % Ctrl: 93%
FGFR3
  % Ctrl: 89%
FGFR3(G697C)
  % Ctrl: 89%
EGFR
  % Ctrl: 79%
TIE2
  % Ctrl: 97%
MET
  % Ctrl: 100%
KIT(D816V)
  % Ctrl: 97%
INSRR
  % Ctrl: 99%
[2]; TYK2(JH2domain-pseudokinase), at 1 μM
  % Ctrl: 0%
[2]; read-out: TYK2(JH2 domain-pseudokinase) Kd
  Kd: 3 nM
[3]; TYK2(JH1domain-catalytic), at 1 μM
  % Ctrl: 71%
[3]; read-out: TYK2(JH1 domain-catalytic) Kd
  Kd: > 10 µM
EGFR(G719C)
  % Ctrl: 100%
BMX
  % Ctrl: 91%
CSK
  % Ctrl: 94%
KIT(D816H)
  % Ctrl: 94%
HCK
  % Ctrl: 100%
KIT(A829P)
  % Ctrl: 99%
EGFR(S752-1759del)
  % Ctrl: 94%
TNK1
  % Ctrl: 94%
[4]
  % Ctrl: 90%
TNK2
  % Ctrl: 97%
ABL2
  % Ctrl: 97%
PYK2
  % Ctrl: 94%
KIT
  % Ctrl: 100%
[5]
  % Ctrl: 99%
[6]; JAK3(JH1domain-catalytic), at 1 μM
  % Ctrl: 70%
[6]; read-out: JAK3(JH1 domain-catalytic) Kd
  Kd: 7.7 µM
[7]; JAK2(JH1domain-catalytic), at 1 μM
  % Ctrl: 93%
[7]; read-out: JAK2(JH1 domain-catalytic) Kd
  Kd: > 10 µM
RET(M918T)
  % Ctrl: 100%
ALK(L1196M)
  % Ctrl: 94%
ERBB4
  % Ctrl: 96%
[8]
  % Ctrl: 100%
[9]
  % Ctrl: 91%
FER
  % Ctrl: 73%
[10]
  % Ctrl: 100%
